Laboratory results: ChEMBL document CHEMBL1140682, “A novel series of potent cytotoxic agents targeting G2/M phase of the cell cycle and demonstrating cell killing by apoptosis in human breast cancer cells” (Bioorg Med Chem Lett, 2007)
pIC50: −log10 of the molar value. Active and inactive are the calls of the source. No cut-off for these calls is given here.

Columns and labels:
MDA-MB-468 [1] = assay: Induction of apoptosis in MDA-MB-468 cells assessed as blebbing at 8.0 uM after 24 hrs by electron microscopy; assay type: functional, cell-based; details: Homo sapiens
MDA-MB-468 [2] = assay: Cell cycle arrest in MDA-MB-468 cells by accumulation at G2/M phase at 1.0 to 2.0 uM by flow cytometry; assay type: functional, cell-based; details: Homo sapiens
MDA-MB-468 [3] = assay: Cell cycle arrest in MDA-MB-468 cells by accumulation at G0/G1 phase at 0.5 uM after 24 hrs; assay type: functional, Homo sapiens
MDA-MB-468 [4] = assay: Induction of apoptosis in MDA-MB-468 cells assessed as alteration in p53 localization; assay type: functional, cell-based; details: Homo sapiens
MDA-MB-468 [5] = assay: Cell cycle arrest in MDA-MB-468 cells by accumulation at G0/G1 phase at 4.0 uM after 24 hrs; assay type: functional, Homo sapiens
MDA-MB-468 [6] = assay: Cell cycle arrest in MDA-MB-468 cells by accumulation at S phase at 8.0 uM after 24 hrs; assay type: functional, Homo sapiens
MDA-MB-468 [7] = assay: Cell cycle arrest in MDA-MB-468 cells by accumulation at G2/M phase at 0.5 uM after 24 hrs; assay type: functional, Homo sapiens
MDA-MB-468 [8] = assay: Cell cycle arrest in MDA-MB-468 cells by accumulation at G2/M phase at 4.0 uM after 24 hrs; assay type: functional, Homo sapiens
MDA-MB-468 [9] = assay: Cell cycle arrest in MDA-MB-468 cells by accumulation at S phase at 4.0 uM after 24 hrs; assay type: functional, Homo sapiens
MDA-MB-468 [10] = assay: Cell cycle arrest in MDA-MB-468 cells by accumulation at G0/G1 phase at 8.0 uM after 24 hrs; assay type: functional, Homo sapiens
MDA-MB-468 [11] = assay: Induction of apoptosis in MDA-MB-468 cells assessed as apoptotic bodies at 8.0 uM after 24 hrs by electron microscopy; assay type: functional, cell-based; details: Homo sapiens
MDA-MB-468 [12] = assay: Induction of apoptosis in MDA-MB-468 cells assessed as vacuolization at 8.0 uM after 24 hrs by electron microscopy; assay type: functional, cell-based; details: Homo sapiens
MDA-MB-468 [13] = assay: Cell cycle arrest in MDA-MB-468 cells by accumulation at S phase at 0.5 uM after 24 hrs; assay type: functional, Homo sapiens
MDA-MB-468 [14] = assay: Cell cycle arrest in MDA-MB-468 cells by accumulation at G2/M phase at 8.0 uM after 24 hrs; assay type: functional, Homo sapiens
MDA-MB-468 [15] = assay: Induction of apoptosis in MDA-MB-468 cells assessed as DNA fragmentation after 24 hrs by TUNEL assay; assay type: functional, cell-based; details: Homo sapiens
MDA-MB-468 [16] = assay: Induction of apoptosis in MDA-MB-468 cells assessed as nuclear condensation at 8.0 uM after 24 hrs by electron microscopy; assay type: functional, cell-based; details: Homo sapiens
MDA-MB-468 [17] = assay: Induction of apoptosis in MDA-MB-468 cells assessed as p53 levels at 8.0 uM; assay type: functional, cell-based; details: Homo sapiens
MDA-MB-468 [18] = assay: Inhibition of human ER negative MDA-MB-468 cells by MTT assay; assay type: functional, cell-based

- pIC50 (MDA-MB-468 [18]): 5.80
Structure (SMILES): c1ccc(Sc2nc(Sc3ccccn3)nc(Sc3ccccn3)n2)nc1
- Activity (MDA-MB-468 [1]): Active
- Activity (MDA-MB-468 [2]): Active
- Activity (MDA-MB-468 [3]): 49%
- Activity (MDA-MB-468 [4]): Dose-dependent effect
- Activity (MDA-MB-468 [5]): 33.6%
- Activity (MDA-MB-468 [6]): 20.8%
- Activity (MDA-MB-468 [7]): 21.8%
- Activity (MDA-MB-468 [8]): 40.5%
- Activity (MDA-MB-468 [9]): 25.9%
- Activity (MDA-MB-468 [10]): 36.3%
- Activity (MDA-MB-468 [11]): Active
- Activity (MDA-MB-468 [12]): Active
- Activity (MDA-MB-468 [13]): 29.2%
- Activity (MDA-MB-468 [14]): 42.9%
- Activity (MDA-MB-468 [15]): Dose-dependent effect
- Activity (MDA-MB-468 [16]): Active
- Activity (MDA-MB-468 [17]): inactive
